Experimental data: patent US20070275990A1, “Heterocyclic Spiro Compound” (ONO PHARMACEUTICAL CO., LTD., priority 2003, published 2007)

Columns and labels:
MBR = molecular target: T1, MBR (Rattus norvegicus, UniProt P16257); test: Receptor binding experiment ([3H]PK11195 competition binding); details: rat brain membrane preparation, [3H]PK11195 0.5 or 1 nmol/L; Ki calculated by Cheng and Prusoff formula from KD value and IC50
T1 construct: from tissue; host or cells: whole brain without cerebellum of male Wistar rats, crude membrane preparation
Experimental: The affinity of the compounds in the present invention to MBR was determined using rat brain membrane preparation. In addition, the measurement in the present invention was improved the accuracy of measurement and the sensitivity of measurement for evaluating the compounds in the present invention as follows. After male Wister rats were decapitated to extirpate the whole brain and cerebellums were removed. They were homogenized in ice-cold 50 mmol/L Tris-HCL buffer solution (pH 7.4), centrifuged and the obtained pellets were washed. The pellets resuspended and adjusted to about 1 mg/mL were used as rat brain membrane preparations for binding assay. The binding assay were experimented using [^3H]PK11195 as a MBR selective ligand. […]
To determine the amount of total binding in saturation binding experiment, membrane preparations, various concentrations of [^3H]PK11195, final concentration: 0.5 vol % dimethylsulfoxide (DMSO) and 50 mmol/L Tris-HCL buffer solution (pH 7.4) were mixed (total volume 200 μL) and were incubated for 1 hour at room temperature. […] The filter was dried and then the radioactivity on the filter was measured by liquid scintillation counter. The data obtained by the binding experiments were Scatchard analyzed using analysis software, KELL (Ver. 6, BIOSOFT) and the dissociation constant (KD value) was determined. […]

male Wistar rats = test: Evaluation of anti-stress effects (defecation under psychological stress); format: in vivo, rat; details: 10 mg/kg orally 30 minutes before stressor load; counted 1 hour later; media treated group average 8.7 feces
Experimental: Psychological stress was loaded to male Wistar rats (Brain research, 641, 21-28, 1994). Water was stored up to the depth of about 10 cm in a container where the platform was set at the center. A stressor began to load to rats 30 minutes after the vehicle or the compound in the present invention (the compound of Example 15(39)) were orally administered by dosage of 10 mg/kg. The number of defecation was counted 1 hour later (10 per each group). Rats without administration and load of stressor rarely defecated for 1 hour. In contrast, remarkable defecation was admitted in media treated group (average 8.7 feces) loaded by stressor. […] The results clarified that the compounds in the present invention had anti-stress effects.

| Ki (MBR) [nM] | Compound | number of defecation (average) (male Wistar rats) [feces] |
| --- | --- | --- |
| 230 | O=C1N(c2ccccc2)CCC12CCCN(S(=O)(=O)c1ccccc1)C2 (stereo not drawn) [Example 7, 2-phenyl-7-(phenylsulfonyl)-2,7-diazaspiro[4.5]decan-1-one] | – |
| 40 | COc1ccc(S(=O)(=O)N2CCCC3(CCN(c4ccc(Cl)cc4)C3=O)C2)cc1 (stereo not drawn) [Example 15(39), 2-(4-chlorophenyl)-7-[(4-methoxyphenyl)sulfonyl]-2,7-diazaspiro[4.5]decan-1-one] | 5.8 |
